IC50 data for 20 compounds are collected here from patent US9957264B2 (Merck Sharp & Dohme Corp., priority 2013, dated 2018).

Structures are written as SMILES.

Test [1] addresses JAK1 (recombinant purified GST-tagged catalytic domain) (Homo sapiens (Human), UniProt P23458). Description: Jak Biochemical HTRF Assay (JAK1). The settings on record: [ATP] 31.8 μM. The essentials:
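Phosphorylation of a common biotinylated peptide by each catalytic domain is measured by HTRF. The ATP-started reaction runs 120 min at room temperature before EDTA quench and detection.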
(In general: TR-FRET usually uses a lanthanide donor and a delayed reading to cut background.)

In test [2] the target is JAK2 (recombinant purified GST-tagged catalytic domain) (Homo sapiens (Human), UniProt O60674). Description: Jak Biochemical HTRF Assay (JAK2). The settings on record: [ATP] 8.5 μM.
Sequence of JAK2 (recombinant purified GST-tagged catalytic domain) (O60674 849-1124): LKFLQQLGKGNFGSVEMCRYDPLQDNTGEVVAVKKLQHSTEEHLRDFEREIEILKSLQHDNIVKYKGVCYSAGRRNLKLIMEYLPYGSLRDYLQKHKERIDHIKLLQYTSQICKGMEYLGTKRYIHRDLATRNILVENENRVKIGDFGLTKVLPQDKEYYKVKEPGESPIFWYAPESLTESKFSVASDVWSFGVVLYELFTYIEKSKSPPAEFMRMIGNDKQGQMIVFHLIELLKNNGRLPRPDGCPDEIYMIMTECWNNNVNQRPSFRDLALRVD

Sequence of JAK1 (recombinant purified GST-tagged catalytic domain) (P23458 875-1153): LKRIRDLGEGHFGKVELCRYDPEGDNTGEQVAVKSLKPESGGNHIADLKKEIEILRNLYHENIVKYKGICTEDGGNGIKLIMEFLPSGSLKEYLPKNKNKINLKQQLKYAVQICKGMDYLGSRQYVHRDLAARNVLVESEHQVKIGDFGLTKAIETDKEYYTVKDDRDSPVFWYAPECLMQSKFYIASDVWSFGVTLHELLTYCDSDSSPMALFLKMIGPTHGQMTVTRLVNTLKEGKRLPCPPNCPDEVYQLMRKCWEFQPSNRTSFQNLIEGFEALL

`COC1CN([C@H]2CC[C@@](CC#N)(n3nc(Nc4ccc(OC(F)(F)F)cc4)c4c(=O)[nH]ccc43)CC2)C1` [Example 18-15, Cis 2-(4-(3-methoxyazetidin-1-yl)-1-(4-oxo-3-((4-(trifluoromethoxy)phenyl)amino)-4,5-dihydro-1H-pyrazolo[4,3-c]pyridin-1-yl)cyclohexyl)acetonitrile]: the figures for the half-maximal inhibitory concentration (IC50) in test [1] and in test [2] were 151 nM and 1140 nM, respectively.

Turning to `Cc1cc(Nc2nn([C@]3(CC#N)CCCOC3)c3cc[nH]c(=O)c23)ccc1C(=O)N1CCCC[C@H]1C` [Example 20-3, 2-((S)-3-(3-((3-methyl-4-((R)-2-methylpiperidine-1-carbonyl)phenyl)amino)-4-oxo-4,5-dihydro-1H-pyrazolo[4,3-c]pyridin-1-yl)tetrahydro-2H-pyran-3-yl)acetonitrile], the IC50 (commonly the concentration that gives 50% inhibition) is 0.65 nM in test [1] and 0.83 nM in test [2].

Regarding `CC(C)(C)N1Cc2cc(Nc3nn([C@@]4(CC#N)CCOC4)c4cc[nH]c(=O)c34)ccc2S1(=O)=O` (single isomer, unassigned) [Example 5-247, (S or R)-2-(3-(3-((2-(tert-butyl)-1,1-dioxido-2,3-dihydrobenzo[d]isothiazol-5-yl)amino)-4-oxo-4,5-dihydro-1H-pyrazolo[4,3-c]pyridin-1-yl)tetrahydrofuran-3-yl)acetonitrile], the IC50 amounted to 0.11 nM in test [1] and 2.24 nM in test [2].

For `CN(C)S(=O)(=O)c1ccc(Nc2nn(C3(CC#N)CCN(C(=O)C(C)(C)C)CC3)c3cc[nH]c(=O)c23)cc1` [Example 9-5, 4-({1-[4-(cyanomethyl)-1-(2,2-dimethylpropanoyl)piperidin-4-yl]-4-oxo-4,5-dihydro-1H-pyrazolo[4,3-c]pyridin-3-yl}amino)-N,N-dimethylbenzenesulfonamide], the half-inhibitory concentration (IC50) in test [1] was found to be 0.55 nM; in test [2] it was 3.05 nM.

As to `COC(=O)N1CCC(CC#N)(n2nc(Nc3ccc4ncccc4c3)c3c(=O)[nH]ccc32)CC1` [Example 5-148, methyl 4-(cyanomethyl)-4-(4-oxo-3-(quinolin-6-ylamino)-4,5-dihydro-1H-pyrazolo[4,3-c]pyridin-1-yl)piperidine-1-carboxylate], the half-maximal inhibitory concentration (IC50) in test [1] stood at 0.08 nM; in test [2], 0.84 nM.

With `CC1CCN1S(=O)(=O)c1ccc(Nc2nn([C@]3(CC#N)CCCOC3)c3cc[nH]c(=O)c23)cc1` (single isomer, unassigned) [Example 5-108, [(3S)-3-{3-[(4-{[(2R or 2S)-2-methylazetidin-1-yl]sulfonyl}phenyl)amino]-4-oxo-4,5-dihydro-1H-pyrazolo[4,3-c]pyridin-1-yl}tetrahydro-2H-pyran-3-yl]acetonitrile], the IC50 in test [1] was found to be 0.12 nM; in test [2] it was 0.23 nM.

Consider `N#CC[C@@]1(n2nc(Nc3ccc([C@@]4(C(F)(F)F)CCCCN4)cc3)c3c(=O)[nH]ccc32)CCOC[C@@H]1F` (single isomer, unassigned) [Example 5-266, 2-((3R,4R or 3S,4S)-3-fluoro-4-(4-oxo-3-((4-((R or S)-2-(trifluoromethyl)piperidin-2-yl)phenyl)amino)-4,5-dihydro-1H-pyrazolo[4,3-c]pyridin-1-yl)tetrahydro-2H-pyran-4-yl)acetonitrile], for which the half-inhibitory concentration (IC50) in test [1] turned out to be 0.05 nM; in test [2] it was 0.04 nM.

Take `CNS(=O)(=O)c1ccc(Nc2nn([C@]3(CC#N)CC[C@@H](C(=O)OC(C)(C)C)OC3)c3cc[nH]c(=O)c23)cc1` [Example 5-94, (2S,5S)-tert-butyl 5-(cyanomethyl)-5-(3-((4-(N-methylsulfamoyl)phenyl)amino)-4-oxo-4,5-dihydro-1H-pyrazolo[4,3-c]pyridin-1-yl)tetrahydro-2H-pyran-2-carboxylate]: the half-maximal inhibitory concentration (IC50) amounted to 0.04 nM in test [1] and 0.18 nM in test [2].

For the compound `CN(C)S(=O)(=O)c1ccc(Nc2nn(C3(CC#N)CCN(C(=O)c4ccc(Cl)cc4)CC3)c3cc[nH]c(=O)c23)cc1` [Example 9-13, 4-[(1-{1-[(4-chlorophenyl)carbonyl]-4-(cyanomethyl)piperidin-4-yl}-4-oxo-4,5-dihydro-1H-pyrazolo[4,3-c]pyridin-3-yl)amino]-N,N-dimethylbenzenesulfonamide], the IC50 was 1.08 nM in test [1] and 12 nM in test [2].

Consider `CCNC(c1ccc(Nc2nn([C@]3(CC#N)CC[C@@H](C(=O)OC(C)(C)C)OC3)c3cc[nH]c(=O)c23)cc1)C(F)(F)F` (single isomer, unassigned) [Example 5-208, (2S,5S)-tert-butyl 5-(cyanomethyl)-5-(3-((4-((R or S)-1-(ethylamino)-2,2,2-trifluoroethyl)phenyl)amino)-4-oxo-4,5-dihydro-1H-pyrazolo[4,3-c]pyridin-1-yl)tetrahydro-2H-pyran-2-carboxylate], for which the IC50 in test [1] worked out at 0.24 nM; in test [2], 0.31 nM.

As to `CC(C)(C)OC(=O)[C@@H]1CC[C@@](CC#N)(n2nc(Nc3ccnc(F)c3)c3c(=O)[nH]ccc32)CO1` [Example 21-6, (2S,5S)-tert-butyl 5-(cyanomethyl)-5-(3-((2-fluoropyridin-4-yl)amino)-4-oxo-4,5-dihydro-1H-pyrazolo[4,3-c]pyridin-1-yl)tetrahydro-2H-pyran-2-carboxylate], the IC50 in test [1] was 0.12 nM; in test [2] it was 2.25 nM.

Regarding `CC(C)(C)OC(=O)[C@@H]1CC[C@@](CC#N)(n2nc(Nc3ccc(C(C)(O)C(F)(F)F)cc3)c3c(=O)[nH]ccc32)CO1` (single isomer, unassigned) [Example 5-171, (2S,5S)-tert-butyl 5-(cyanomethyl)-5-(4-oxo-3-((4-((S or R)-1,1,1-trifluoro-2-hydroxypropan-2-yl)phenyl)amino)-4,5-dihydro-1H-pyrazolo[4,3-c]pyridin-1-yl)tetrahydro-2H-pyran-2-carboxylate], the results for the IC50 in test [1] and in test [2] were 0.07 nM and 0.18 nM, respectively.

Turning to `CC(C)(C)OC(=O)[C@@H]1CC[C@@](CC#N)(n2nc(Nc3ccc4c(c3)CC(C)(C)C4(O)C(F)(F)F)c3c(=O)[nH]ccc32)CO1` (single isomer, unassigned) [Example 5-164, (2S,5S)-tert-butyl 5-(cyanomethyl)-5-(3-(((S or R)-1-hydroxy-2,2-dimethyl-1-(trifluoromethyl)-2,3-dihydro-1H-inden-5-yl)amino)-4-oxo-4,5-dihydro-1H-pyrazolo[4,3-c]pyridin-1-yl)tetrahydro-2H-pyran-2-carboxylate], the results for the IC50 in test [1] and in test [2] were 0.59 nM and 0.68 nM, respectively.

As for `CC(C#N)OC(=O)N1CCC(CC#N)(n2nc(Nc3ccc(S(=O)(=O)N(C)C)cc3)c3c(=O)[nH]ccc32)CC1` (stereo not shown) [Example 11-10, 1-cyanoethyl 4-(cyanomethyl)-4-(3-((4-(N,N-dimethylsulfamoyl)phenyl)amino)-4-oxo-4,5-dihydro-1H-pyrazolo[4,3-c]pyridin-1-yl)piperidine-1-carboxylate], the concentration for half-maximal inhibition (IC50) in test [1] was found to be 0.06 nM; in test [2], 0.1 nM.

`CN(C)S(=O)(=O)c1ccc(Nc2nn(C3(CC#N)CCN(Cc4ccccc4)CC3)c3cc[nH]c(=O)c23)cc1` [Example 8-1, 4-({1-[1-benzyl-4-(cyanomethyl)piperidin-4-yl]-4-oxo-4,5-dihydro-1H-pyrazolo[4,3-c]pyridin-3-yl}amino)-N,N-dimethylbenzenesulfonamide]: the figures for the IC50 in test [1] and in test [2] were 0.17 nM and 0.38 nM, respectively.

Consider `CC(C)(C)OC(=O)N1CCC(CC#N)(n2nc(Nc3ccc([C@@]4(C(F)(F)F)CCCN4)cc3)c3c(=O)[nH]ccc32)CC1` (single isomer, unassigned) [Example 21-18, (R or S)-tert-butyl 4-(cyanomethyl)-4-(4-oxo-3-(4-(2-(trifluoromethyl)pyrrolidin-2-yl)phenylamino)-4,5-dihydropyrazolo[4,3-c]pyridin-1-yl)piperidine-1-carboxylate], for which the IC50 in test [1] was 0.55 nM; in test [2] it was 0.5 nM.

As to `CC(C)(C)OC(=O)N1CCC(CC#N)(n2nc(Nc3ccc4c(c3)CN(CC(F)(F)F)C4=O)c3c(=O)[nH]ccc32)CC1` [Example 5-5, tert-butyl 4-(cyanomethyl)-4-(4-oxo-3-{[1-oxo-2-(2,2,2-trifluoroethyl)-2,3-dihydro-1H-isoindol-5-yl]amino}-4,5-dihydro-1H-pyrazolo[4,3-c]pyridin-1-yl)piperidine-1-carboxylate], the IC50 in test [1] is 0.28 nM; in test [2] it was 0.31 nM.

Take `CN(C)S(=O)(=O)c1ccc(Nc2nn(C3(CC#N)CCN(C(=O)C4Cc5ccccc5C4)CC3)c3cc[nH]c(=O)c23)cc1` [Example 9-18, 4-({1-[4-(cyanomethyl)-1-(2,3-dihydro-1H-inden-2-ylcarbonyl)piperidin-4-yl]-4-oxo-4,5-dihydro-1H-pyrazolo[4,3-c]pyridin-3-yl}amino)-N,N-dimethylbenzenesulfonamide]: the half-inhibitory concentration (IC50) came out at 0.14 nM in test [1] and 0.39 nM in test [2].

Consider `CC(C)(C)OC(=O)[C@@H]1CC[C@@](CC#N)(n2nc(Nc3ccc4nc(N5CC6CCC(C5)O6)ccc4c3)c3c(=O)[nH]ccc32)CO1` [Example 5-229, (2S,5S)-tert-butyl 5-(3-((2-(8-oxa-3-azabicyclo[3.2.1]octan-3-yl)quinolin-6-yl)amino)-4-oxo-4,5-dihydro-1H-pyrazolo[4,3-c]pyridin-1-yl)-5-(cyanomethyl) tetrahydro-2H-pyran-2-carboxylate], for which the values for the IC50 in test [1] and in test [2] were 0.34 nM and 1.39 nM, respectively.

Turning to `CCNC(c1ccc(Nc2nn([C@]3(CC#N)CC[C@@H](C(=O)OC(C)(C)C)OC3)c3cc[nH]c(=O)c23)cc1)C(F)(F)F` (single isomer, unassigned) [Example 5-207, (2S,5S)-tert-butyl 5-(cyanomethyl)-5-(3-((4-((R or S)-1-(ethylamino)-2,2,2-trifluoroethyl)phenyl)amino)-4-oxo-4,5-dihydro-1H-pyrazolo[4,3-c]pyridin-1-yl)tetrahydro-2H-pyran-2-carboxylate], the results for the concentration for half-maximal inhibition (IC50) in test [1] and in test [2] were 0.19 nM and 0.26 nM, respectively.
